Tests used:
[1] = tested on: Human immunodeficiency virus 1; assay: Antiviral activity against R5 tropic HIV-1 BAL infected in human PBL assessed as reduction in Agp24 level at 100 uM measured after 3 days by ELISA relative to control; format: functional; parameters: scale not given: the % may be the effect or the level left
[2] = biological target: Rap guanine nucleotide exchange factor 3 (Homo sapiens, UniProt O95398); assay: Activation of EPAC1 DEP1 deletion mutant (unknown origin) expressed in mouse NIH-3T3-A14 cells assessed as increase in Rap1b- fluorescent nucleotide methylontraniloyl-GDP nucleotide exchange by fluorescence assay; format: cell-based
Chain of Rap guanine nucleotide exchange factor 3 (O95398 whole entry, looked up): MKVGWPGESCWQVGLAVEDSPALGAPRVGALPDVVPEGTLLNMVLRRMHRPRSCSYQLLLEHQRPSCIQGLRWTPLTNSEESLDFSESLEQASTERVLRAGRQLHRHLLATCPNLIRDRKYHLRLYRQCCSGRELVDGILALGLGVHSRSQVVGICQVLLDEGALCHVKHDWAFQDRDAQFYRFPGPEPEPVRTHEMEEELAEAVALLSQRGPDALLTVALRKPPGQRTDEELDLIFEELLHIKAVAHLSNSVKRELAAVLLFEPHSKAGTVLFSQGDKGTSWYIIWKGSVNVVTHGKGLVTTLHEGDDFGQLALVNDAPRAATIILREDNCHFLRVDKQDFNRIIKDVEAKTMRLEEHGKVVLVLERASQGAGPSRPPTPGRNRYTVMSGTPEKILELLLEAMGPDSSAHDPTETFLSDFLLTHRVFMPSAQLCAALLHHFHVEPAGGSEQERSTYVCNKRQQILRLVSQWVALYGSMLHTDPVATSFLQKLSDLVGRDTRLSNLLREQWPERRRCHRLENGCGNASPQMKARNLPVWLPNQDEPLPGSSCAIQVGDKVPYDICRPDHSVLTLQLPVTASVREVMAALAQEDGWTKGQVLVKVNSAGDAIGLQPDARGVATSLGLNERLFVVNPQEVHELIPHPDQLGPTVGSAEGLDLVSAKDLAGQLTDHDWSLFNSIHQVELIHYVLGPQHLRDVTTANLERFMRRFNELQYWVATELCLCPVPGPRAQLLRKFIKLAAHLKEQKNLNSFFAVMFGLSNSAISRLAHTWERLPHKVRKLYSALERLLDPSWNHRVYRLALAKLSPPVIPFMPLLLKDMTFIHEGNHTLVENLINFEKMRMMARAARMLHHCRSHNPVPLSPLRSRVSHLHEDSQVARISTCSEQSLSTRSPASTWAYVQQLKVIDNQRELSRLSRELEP

**Q.** With `CO[C@@H]1[C@@H]2OP(=O)(O)OC[C@H]2O[C@H]1n1c(Sc2ccc(Cl)cc2)nc2c(N)ncnc21` as the compound, how does the Activity [1] read?
**A.** 40%

**Q.** And the EC50 [2]?
**A.** 2200 nM

Source: ChEMBL document CHEMBL4177535 (Bioorg Med Chem Lett, 2017)
